Measured values from patent publication US9751875B2, “Quinine compounds, and optical isomers, preparation method and medical use thereof” (BEIJING FSWELCOME TECHNOLOGY DEVELOPMENT CO., LTD., priority 2013, dated 2017).
Read-outs that look alike come from different tables or passages of the source.

Legend:
[1] = system: tracheal smooth muscle from guinea pigs (contraction induced by 3 × 10^−6 mol/L of CCh); test: Antagonism in vitro of contraction of isolated tracheal smooth muscle from guinea pigs induced by carbachol (CCh); assay type: cell-based, guinea pig
Text: Preparation of the Isolated Tracheal Smooth Muscle Specimen from a Guinea Pig:
After a guinea pig was narcotized with urethane, the trachea between the throat and carina of the guinea pig was taken out rapidly, and placed in the Krebs-Henseleit (K-H) solution (composition (g/L): NaCl 6.92, KCl 0.35, CaCl2 0.28, KH2PO4 0.16, MgSO4.7H2O 0.4568, NaHCO3 2.1, Glucose 2.0) with a mixture gas of 5% CO2 and 95% O2 purged. After loose connective tissues and fats around the trachea were separated, the trachea was cut into trachea pieces having a width of about 3 mm and a length of 20 mm by a surgical scissor, with both ends of the trachea piece ligated with 4˜0 silk suture, and then placed into a thermostatic bath containing 5 ml of K—H solution (pH 7.4) at 37° C., with the mixture gas of 5% CO2 and 95% O2 continuously purged. A muscle tension transducer was connected to the upper end so as to apply 1.0 g of resting tension to the specimen, the change of the tension was recorded, the culture solution was replaced every 20 min, and the test was started after being balanced for 60 min.
Administration method: After the trachea piece was stabilized, 3×10^−6 mol/L of CCh was added into a bath, and after the contractile tension of the trachea piece reached a peak level, the example compounds, ipratropium bromide and tiotropium bromide were added into a Magnus bath by a cumulative dosing regimen with a dosage of 10^−9˜10^−5 mol, respectively, and the diastolic condition of the trachea piece was observed: if no response occurred (below the threshold concentration), a next dosage was continued to be added in sequence; if response occurred, after it reached a diastolic plateau, a next dosage was further added. The above operation was repeated until the contractile curve reached the minimum value. Finally, 10^−6 mol/L of isoprenaline was added so that the maximum relaxation would be reached and the curve was recorded.
Statistical approach: The result was expressed as mean ±standard deviation, and counted by Sigma Stat statistical package. The data was analyzed by using variance analysis, the comparison among means of a plurality of specimen was performed by using Student-Newman-Keuls(SNK) test; statistical significant level α=0.05 (bilateral).
Compounds shown in Table 5 were further prepared according to the present invention, and their IC50 […] of resistance to the contraction of tracheal smooth muscle from guinea pigs induced by a concentration of 3×10^−6 mol/L of CCh was determined.

[2] = system: tracheal smooth muscle from guinea pigs (contraction induced by 3 × 10^−6 mol/L of CCh); test: as above; assay type: cell-based, guinea pig; remark: listed apart in the source
[3] = read-out: IC50 (μM), antagonism in vitro against the contraction of the tracheal smooth muscle induced by CCh, 3 × 10^−6 mol/L of CCh, cumulative dosing
[4] = Cavia porcellus, read-out: IC50 (μM), antagonism in vitro against the contraction of the tracheal smooth muscle induced by CCh, 3 × 10^−6 mol/L of CCh, cumulative dosing
[5] = Cavia porcellus, 3 × 10^−6 mol/L of CCh, cumulative dosing, read-out: IC50 (μM), antagonism in vitro against the contraction of the tracheal smooth muscle induced by CCh
[6] = 3 × 10^−6 mol/L of CCh, cumulative dosing, read-out: IC50 (μM), antagonism in vitro against the contraction of the tracheal smooth muscle induced by CCh
[7] = Cavia porcellus, read-out: Resistance to the contraction of smooth muscle from guinea pigs in vitro, IC50 (μM), 3 × 10^−6 mol/L of CCh, Table 5
[8] = Cavia porcellus, 3 × 10^−6 mol/L of CCh, Table 5, read-out: Resistance to the contraction of smooth muscle from guinea pigs in vitro, IC50

SMILES	Onset time [2] [min]	Time for eliminating inhibition effect (min) [2]	IC50 [1, 7] [µM]	further results
OC(CO[C@H]1C[N+]2(CCCOc3ccccc3)CCC1CC2)(c1ccccc1)C1CCCC1.[Br-] (stereo partly drawn) [Example 2, (2S,3S)-3-[(2-cyclopentyl-2-hydroxyl-2-phenyl)ethoxyl]-1-(3-phenoxypropyl)-1-azabicyclo[2,2,2]octane bromide]	6.53	more than 300 min		IC50 [1, 3]: 2.85 µM
OC(CO[C@@H]1C[N+]2(CCCOc3ccccc3)CCC1CC2)(c1ccccc1)C1CCCC1.[Br-] (stereo partly drawn) [Example 3, (2S,3R)-3-[(2-cyclopentyl-2-hydroxyl-2-phenyl)ethoxyl]-1-(3-phenoxypropyl)-1-azabicyclo[2,2,2]octane bromide]	6.54	more than 300 min		IC50 [1, 3]: 0.852 µM
OC(CO[C@H]1C[N+]2(CCCOc3ccccc3)CCC1CC2)(c1ccccc1)C1CCCCC1.[Br-] (stereo partly drawn) [Example 7, (2R,3S)-3-[(2-cyclohexyl-2-hydroxyl-2-phenyl)ethoxyl]-1-(3-phenoxypropyl)-1-azabicyclo[2,2,2]octane bromide]	6.56	more than 300 min		IC50 [1, 4]: 0.791 µM
O[C@](CO[C@H]1C[N+]2(CCCOc3ccccc3)CCC1CC2)(c1ccccc1)C1CCCCC1.[Br-] [Example 8, (2S,3S)-3-[(2-cyclohexyl-2-hydroxyl-2-phenyl)ethoxyl]-1-(3-phenoxypropyl)-1-azabicyclo[2,2,2]octane bromide]	6.72	more than 300 min		IC50 [1, 4]: 2.35 µM
O[C@](COC1C[N+]2(CCCOc3ccccc3)CCC1CC2)(c1ccccc1)C1CCCCC1.[Br-] (stereo partly drawn) [Example 9, (2S,3R)-3-[(2-cyclohexyl-2-hydroxyl-2-phenyl)ethoxyl]-1-(3-phenoxypropyl)-1-azabicyclo[2,2,2]octane bromide]	6.13	more than 300 min		IC50 [1, 4]: 0.758 µM
OC(CO[C@H]1C[N+]2(CCCOc3ccccc3)CCC1CC2)(c1ccccc1)C1CCCCC1 (stereo partly drawn) [Example 11, (2R,3S),(2S,3R) Configuration of 3-[(2-cyclohexyl-2-hydroxyl-2-phenyl)ethoxyl]-1-(3-phenoxypropyl)-1-azabicyclo[2,2,2]octane bromide]	6.77	more than 300 min		IC50 [1, 5]: 1.36 µM
OC(CO[C@H]1C[N+]2(CCCOc3ccccc3)CCC1CC2)(c1ccccc1)C1CCC1 (stereo partly drawn) [Example 13, (2R,3S)-3-[(2-cyclobutyl-2-hydroxyl-2-phenyl)ethoxyl]-1-(3-phenoxypropyl)-1-azabicyclo[2,2,2]octane bromide]	7.25	more than 300 min		IC50 [1, 5]: 0.917 µM
OC(CO[C@@H]1C[N+]2(CCCOc3ccccc3)CCC1CC2)(c1ccccc1)C1CCC1.[Br-] (stereo partly drawn) [Example 15, (2S,3R)-3-[(2-cyclobutyl-2-hydroxyl-2-phenyl)ethoxyl]-1-(3-phenoxypropyl)-1-azabicyclo[2,2,2]octane bromide]	6.29	more than 300 min		IC50 [1, 3]: 1.52 µM
OC(CO[C@H]1C[N+]2(CCCOc3ccccc3)CCC1CC2)(c1ccccc1)C1CCC1 (stereo partly drawn) [Example 17, (2R,3S),(2S,3R)-3-[(2-cyclobutyl-2-hydroxyl-2-phenyl)ethoxyl]-1-(3-phenoxypropyl)-1-azabicyclo[2,2,2]octane bromide]	7.05	more than 300 min		IC50 [1, 6]: 1.57 µM
OC(CO[C@H]1C[N+]2(CCCOc3ccccc3)CCC1CC2)(c1ccccc1)C1CCC1 (stereo partly drawn) [Example 18, (2R,3R),(2S,3S)-3-[(2-cyclobutyl-2-hydroxyl-2-phenyl)ethoxyl]-1-(3-phenoxypropyl)-1-azabicyclo[2,2,2]octane bromide]	6.92	more than 300 min		IC50 [1, 6]: 0.156 µM
OC(CO[C@H]1C[N+]2(CCCOc3ccccc3)CCC1CC2)(c1ccccc1)C1CC1 (stereo partly drawn) [Example 19, (2R,3S)-3-[(2-cyclopropyl-2-hydroxyl-2-phenyl)ethoxyl]-1-(3-phenoxypropyl)-1-azabicyclo[2,2,2]octane bromide]	6.68	more than 300 min		IC50 [1, 5]: 1.76 µM
OC(CO[C@H]1C[N+]2(CCCOc3ccccc3)CCC1CC2)(c1ccccc1)C1CC1.[Br-] (stereo partly drawn) [Example 20, (2S,3S)-3-[(2-cyclopropyl-2-hydroxyl-2-phenyl)ethoxyl]-1-(3-phenoxypropyl)-1-azabicyclo[2,2,2]octane bromide]	6.32	more than 300 min		IC50 [1, 3]: 2.35 µM
COc1cccc2cccc(C(O)(COC3C[N+]4(CCCOc5ccccc5)CCC3CC4)C3CCCC3)c12 (stereo not drawn) [Example 34]			0.654	
OC(CCOC1C[N+]2(CCCOc3ccccc3)CCC1CC2)(c1ccccc1)C1CCCC1 (stereo not drawn) [Example 35]			0.102	
CC(=O)OC(COC1C[N+]2(CCCOc3ccccc3)CCC1CC2)(c1ccccc1)C1CCCC1 (stereo not drawn) [Example 36]			0.068	
OC(COC1C[N+]2(CCCOc3ccccc3)CCC1CC2)(c1cccs1)C1CCCC1 (stereo not drawn) [Example 37]			0.0783	
OC(CCCCCCCOC1C[N+]2(CCCOc3ccccc3)CCC1CC2)(c1ccsc1)C1CCCC1 (stereo not drawn) [Example 38]			0.0317	

SMILES	Onset time [2] [min]	Time for eliminating inhibition effect (min) [2]	IC50 [1, 7] [µM]	further results
COC1C[N+]2(CCCOc3ccccc3)CCC1C(OCC(O)(c1ccccc1)C1CCCC1)C2 (stereo not drawn) [Example 39]			0.045	
ClC(COC1C[N+]2(CCCOc3ccccc3)CCC1CC2)(c1ccccc1)C1CCCC1 (stereo not drawn) [Example 40]			0.805	
Cc1ccc(OCCC[N+]23CCC(CC2)C(OCC(O)(c2ccccc2)C2CCCC2)C3)cc1 (stereo not drawn) [Example 41]			0.0562	
COc1ccc(OCCC[N+]23CCC(CC2)C(OCC(O)(c2ccccc2)C2CCCC2)C3)cc1 (stereo not drawn) [Example 42]			0.078	
CC(Oc1ccccc1)[N+]12CCC(CC1)C(OCC(O)(c1ccccc1)C1CCCC1)C2 (stereo not drawn) [Example 43]			0.0615	
CC(C)(Oc1ccccc1)[N+]12CCC(CC1)C(OCC(O)(c1ccccc1)C1CCCC1)C2 (stereo not drawn) [Example 44]			0.147	
OC(COC1C[N+]2(C3(COc4ccccc4)CCCC3)CCC1CC2)(c1ccccc1)C1CCCC1 (stereo not drawn) [Example 45]			0.512	
OC(COC1C[N+]2(C3(COc4ccccc4)C=CC=C3)CCC1CC2)(c1ccccc1)C1CCCC1 (stereo not drawn) [Example 46]			1.23	
CCCCC(O)(COC1C[N+]2(CCCOc3ccccc3)CCC1CC2)c1ccccc1 (stereo not drawn) [Example 47]			0.506	
OC(COC1C[N+]2(CCCOc3ccccc3)CCC1CC2)(c1ccccc1)C1CCCC1 (stereo not drawn) [Example 48]				IC50 ([1]; read-out: Resistance to the contraction of smooth muscle from guinea pigs in vitro, IC50, 3 × 10^−6 mol/L of CCh, Table 5): 1.18 µM
CC1CCCC1C(O)(COC1C[N+]2(CCCOc3ccccc3)CCC1CC2)c1ccccc1 (stereo not drawn) [Example 49]			0.045	
CC1=CC=CC1C(O)(COC1C[N+]2(CCCOc3ccccc3)CCC1CC2)c1ccccc1 (stereo not drawn) [Example 50]			0.413	
COC1C(OCC(O)(c2ccccc2)C2CCCC2)C2CC[N+]1(CCCOc1ccccc1)CC2 (stereo not drawn) [Example 52]			0.513	
OC(COC1C[N+]2(CCCOc3ccccc3)CCC1CC2)(CC1CCCC1)c1ccccc1 (stereo not drawn) [Example 53]			2.17	
OC(COC1C[N+]2(CCCOc3ccccc3)CCC1CC2)(c1ccccc1)C1CCCC1 (stereo not drawn) [Example 54]				IC50 [1, 8]: 0.0376 µM
OC(COC1C[N+]2(CCCOc3ccccc3)CCC1CC2)(c1ccccc1)C1CCCC1 (stereo not drawn) [Example 55]				IC50 [1, 8]: 0.0359 µM
